Assay type in all cases: biochemical
Assay [1] has as its target T1, recombinant 15-LOX enzyme (Homo sapiens, UniProt P16050).
T1 sequence (P16050 1-662): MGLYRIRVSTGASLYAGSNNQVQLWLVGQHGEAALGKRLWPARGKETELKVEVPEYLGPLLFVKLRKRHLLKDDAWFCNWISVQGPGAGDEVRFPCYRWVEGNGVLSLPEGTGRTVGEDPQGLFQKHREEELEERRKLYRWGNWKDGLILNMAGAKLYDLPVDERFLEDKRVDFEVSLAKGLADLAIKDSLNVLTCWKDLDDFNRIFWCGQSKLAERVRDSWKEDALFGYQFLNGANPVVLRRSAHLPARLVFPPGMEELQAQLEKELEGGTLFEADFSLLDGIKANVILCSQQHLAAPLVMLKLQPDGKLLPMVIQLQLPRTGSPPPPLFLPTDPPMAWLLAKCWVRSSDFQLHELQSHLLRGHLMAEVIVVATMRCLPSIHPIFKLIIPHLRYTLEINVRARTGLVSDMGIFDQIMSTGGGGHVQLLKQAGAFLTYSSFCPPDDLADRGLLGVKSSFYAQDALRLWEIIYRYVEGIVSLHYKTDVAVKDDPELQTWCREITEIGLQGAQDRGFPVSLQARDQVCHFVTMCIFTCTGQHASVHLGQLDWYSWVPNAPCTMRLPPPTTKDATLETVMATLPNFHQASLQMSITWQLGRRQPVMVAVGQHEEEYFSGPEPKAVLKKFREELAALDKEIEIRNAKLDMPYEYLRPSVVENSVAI
As to the kind of experiment: 15-LOX fluorescent assay. Particulars: several values in one cell = repeat determinations; read-out: IC50 (μM) values for in vitro lipoxygenase inhibition, 15-LOX. In a few lines:
(§1)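 Compounds pre-incubated 15 min with 100 nM 12-LOX or 50 nM 15-LOX in 50 mM Tris pH 7.5, 0.05% Tween-20; reaction started with 20 μM AA/LA plus 1 μM DHR123.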

A further assay deals with T2, recombinant 5-LOX (Homo sapiens, UniProt P09917).
T2 sequence (P09917 1-674): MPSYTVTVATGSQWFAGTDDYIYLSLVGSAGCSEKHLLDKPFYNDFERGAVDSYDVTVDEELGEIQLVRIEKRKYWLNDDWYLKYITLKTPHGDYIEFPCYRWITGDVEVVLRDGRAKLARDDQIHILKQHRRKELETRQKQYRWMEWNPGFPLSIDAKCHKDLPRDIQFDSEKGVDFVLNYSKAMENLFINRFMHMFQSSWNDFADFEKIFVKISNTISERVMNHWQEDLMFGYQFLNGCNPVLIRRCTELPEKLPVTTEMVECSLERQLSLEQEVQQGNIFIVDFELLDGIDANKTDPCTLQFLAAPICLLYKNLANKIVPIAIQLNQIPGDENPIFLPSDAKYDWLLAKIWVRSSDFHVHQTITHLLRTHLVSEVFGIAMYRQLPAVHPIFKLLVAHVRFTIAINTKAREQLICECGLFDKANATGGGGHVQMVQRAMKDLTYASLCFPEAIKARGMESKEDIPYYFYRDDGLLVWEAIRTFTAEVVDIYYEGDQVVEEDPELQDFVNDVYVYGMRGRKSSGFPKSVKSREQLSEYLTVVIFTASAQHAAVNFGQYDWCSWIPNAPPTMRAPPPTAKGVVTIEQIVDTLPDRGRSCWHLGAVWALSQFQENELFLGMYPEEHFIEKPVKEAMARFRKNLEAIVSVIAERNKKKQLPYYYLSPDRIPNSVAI
Nature of the assay: 5-LOX fluorescent assay. Particulars: several values in one cell = repeat determinations; read-out: IC50 (μM) values for in vitro lipoxygenase inhibition, 5-LOX. An outline of the steps: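 Lysate containing recombinant 5-LOX was pre-incubated 15 min with compounds in 50 mM Tris pH 7.5, 0.1 mM EDTA, 0.3 mM CaCl2. The reaction was started with 20 μM arachidonic acid, 100 μM ATP and 1 μM DHR123.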

The target of assay [2] is T3, recombinant 12-LOX enzyme (Homo sapiens, UniProt P18054).
T3 sequence (P18054 1-663): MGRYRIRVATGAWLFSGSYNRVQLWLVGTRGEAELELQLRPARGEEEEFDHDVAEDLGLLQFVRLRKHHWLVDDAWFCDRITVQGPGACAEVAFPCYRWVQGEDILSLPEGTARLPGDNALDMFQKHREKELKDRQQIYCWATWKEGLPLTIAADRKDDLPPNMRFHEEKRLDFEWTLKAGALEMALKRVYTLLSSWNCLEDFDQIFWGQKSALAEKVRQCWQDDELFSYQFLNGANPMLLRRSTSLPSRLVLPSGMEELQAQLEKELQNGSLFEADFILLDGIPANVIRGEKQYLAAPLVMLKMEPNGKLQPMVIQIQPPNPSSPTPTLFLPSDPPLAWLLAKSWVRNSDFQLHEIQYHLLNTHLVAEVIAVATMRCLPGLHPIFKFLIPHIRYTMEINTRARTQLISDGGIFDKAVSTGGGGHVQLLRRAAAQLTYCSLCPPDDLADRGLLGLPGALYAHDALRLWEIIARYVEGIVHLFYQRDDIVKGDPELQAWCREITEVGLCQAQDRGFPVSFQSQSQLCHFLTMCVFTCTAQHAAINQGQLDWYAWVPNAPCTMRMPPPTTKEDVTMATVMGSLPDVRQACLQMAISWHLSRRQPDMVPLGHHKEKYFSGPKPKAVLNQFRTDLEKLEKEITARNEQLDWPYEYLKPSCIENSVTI
Nature of the assay: 12-LOX fluorescent assay. Conditions: several values in one cell = repeat determinations; read-out: IC50 (μM) values for in vitro lipoxygenase inhibition, 12-LOX. An outline of the steps: as §1

Usually IC50 stands for the midpoint of a concentration-inhibition curve. Regarding `c1ccc2c(c1)CCc1ccc(NCCCN3CCOCC3)cc1N2` [SS20308-0303-01, N-(3-morpholinopropyl)-10,11-dihydro-5H-dibenzo[b,f]azepin-3-amine], the figures for the IC50 (in assay [1]; at recombinant 5-LOX; in assay [2]) were 0.9 µM, 0.12 µM and 0.09 µM, respectively.
On the same counts, the results for `Fc1cc2[nH]c3ccccc3c2cc1NCC1(Cn2cncn2)COC1` [SS20308-0304-01, N-((3-((1H-1,2,4-triazol-1-yl)methyl)oxetan-3-yl)methyl)-2-fluoro-9H-carbazol-3-amine] are 0.4 µM, 0.2 µM and 0.09 µM.
As to `c1ccc2c(c1)CCc1cc(C3CCOCC3)c(NCCn3cncn3)cc1N2` [SS20308-0305-01, N-(2-(1H-1,2,4-triazol-1-yl)ethyl)-2-(tetrahydro-2H-pyran-4-yl)-10,11-dihydro-5H-dibenzo[b,f]azepin-3-amine], the half-inhibitory concentration (IC50) in assay [1] is 0.58 µM; on recombinant 5-LOX, 0.2 µM; in assay [2], 0.14 µM.
On the same counts, the results for `Fc1c(NCC2(Cn3cncn3)COC2)ccc2[nH]c3ccccc3c12` [SS20308-0312-01, N-((3-((1H-1,2,4-triazol-1-yl)methyl)oxetan-3-yl)methyl)-4-fluoro-9H-carbazol-3-amine] are 0.15 µM, 0.09 µM and 0.03 µM.
